Data published in US20110230430A1, “SAPONIN EXTRACT FROM SAPONARIA SPP. AND USES THEREOF” (NATIONAL RESEARCH COUNCIL OF CANADA, priority 2008, published 2011).

Columns and labels:
Type in all cases: cell-based, human
[1] = test system: MDA-MB-231 cells; test: APO LOGIX Carboxyfluorescein Caspase 9 Detection Kit in MDA-MB-231 cells
Description: (§1) In a still further apoptotic assay, apoptosis can be measured by the APO LOGIX™ Carboxyfluorescein Caspase 9 Detection Kit. The APO LOGIX™ Carboxyfluorescein Caspase 9 Detection Kit uses a cell permeable carboxyfluorescein labeled caspase inhibitor, which binds covalently to active caspases 9. Caspase 9 is involved in initiating apoptosis through the mitochondrial pathway (Budihardjo I., et al. 1999). Cells that contain bound inhibitor are detected by an increase in fluorescence when samples are analyzed by flow cytometry.
The MDA-MB-231 cell line (ATCC #HTB-26) was derived from the pleural effusion of a patient with a breast adenocarcinoma (Cailleau et al., 1974). The cells were maintained in RPMI 1640 (Gibco) supplemented with 10% fetal bovine serum (Camera), 100 U/mL penicillin, 100 μg/mL streptomycin and 0.25 μg/mL amphotericin B. Cultures were maintained in medium at 37° C. with 5% CO2 and 100% relative humidity.
MDA-MB-231 cells were treated with PC1448 and assayed for apoptosis as previously described for PC-3 cells.

[2] = test system: CRL-2522 cells; test: APO LOGIX Carboxyfluorescein Caspase 9 Detection Kit in CRL-2522 cells
Description: as §1
CRL-2522 cells, acquired from ATCC, (American Type Culture Collection) are normal fibroblast cells that originated from human foreskin. CRL-2522 cells were maintained in RPMI 1640 medium (Gibco) supplemented with 10% fetal bovine serum (Cansera), 100 U/mL penicillin, 100 μg/mL streptomycin and 0.25 μg/mL amphotericin B. Cultures were maintained in medium at 37° C. with 5% CO2 and 100% relative humidity.
CRL-2522 cells were treated with PC1448 and assayed for apoptosis as described above for PC-3 cells.

[3] = test system: HT-29 cancer cells; test: Dual Sensor: MitoCasp Assay in HT-29 colon cancer cells; conditions: HT-29 cells, 2.5 μM, 5.0 μM and 10 μM, 23 hours
Description: Techniques to assay enzymatic and signaling processes involved in apoptosis have been developed as standard protocols. One example of an early step in apoptosis, is the release of cytochrome C from mitochondria and the activation of caspase-3. Induction of the caspases (a series of cytosolic proteases) is one of the most consistently observed features of apoptosis. Caspases are a family of proteolytic enzymes that transmit the apoptotic signal using a proteolytic cascade. […] Caspases 3 and 7 are effector caspases, central to the caspase cascade pathways. In particular, caspase-3 plays a central role in the process. When caspases are activated, they cleave target proteins; one of the most important of these is poly-(ADP-ribose) polymerase (PARP), which is a protein located in the nucleus. Therefore, assays detecting release of cytochrome C, detecting caspase-3 activity and detecting PARP degradation are effective determinants of apoptosis. The loss of mitochondrial membrane potential is known to occur during apoptosis. […] Collapse of the mitochondrial membrane potential during apoptosis prevents the dye from accumulating in the mitochondria resulting in a decrease in fluorescent intensity that can be detected with flow cytometry. […] In this assay, caspase 3/7 activity is detected using a cell permeable carboxyfluorescein labeled caspase inhibitor, which binds covalently to active caspases 3 and 7. Cells that contain bound inhibitor are detected by an increase in fluorescence when samples are analyzed by flow cytometry.
Following PC1448 treatment, adherent and non-adherent cells were harvested and washed with cold PBS. […] Samples were analyzed by flow cytometry measuring the fluorescence emissions from 515 nm to 530 nm for caspase detection, and 574 nm to 600 nm for mitochondrial membrane potential detection. […]
HT-29 cancer cells were treated with 2.5 μM, 5.0 μM and 10 μM of PC1526 or PC1448 for 23 hours, or with 2.5 μM, 5.0 μM and 10 μM PC1422 for 24 hours and assessed using the Dual Sensor: MitoCasp™ Assay. […]

[4] = test system: WiDr colon cancer cells; test: Dual Sensor: MitoCasp Assay in WiDr colon cancer cells; conditions: 2.5 μM, 5.0 μM, 10 μM, and 15 μM, 24 hours
Description: Techniques to assay enzymatic and signaling processes involved in apoptosis have been developed as standard protocols. One example of an early step in apoptosis, is the release of cytochrome C from mitochondria and the activation of caspase-3. Induction of the caspases (a series of cytosolic proteases) is one of the most consistently observed features of apoptosis. Caspases are a family of proteolytic enzymes that transmit the apoptotic signal using a proteolytic cascade. […] Caspases 3 and 7 are effector caspases, central to the caspase cascade pathways. In particular, caspase-3 plays a central role in the process. When caspases are activated, they cleave target proteins; one of the most important of these is poly-(ADP-ribose) polymerase (PARP), which is a protein located in the nucleus. […] Collapse of the mitochondrial membrane potential during apoptosis prevents the dye from accumulating in the mitochondria resulting in a decrease in fluorescent intensity that can be detected with flow cytometry. […] In this assay, caspase 3/7 activity is detected using a cell permeable carboxyfluorescein labeled caspase inhibitor, which binds covalently to active caspases 3 and 7. Cells that contain bound inhibitor are detected by an increase in fluorescence when samples are analyzed by flow cytometry. […]

[5] = test system: PC-3 (prostate cancer) cells; test: Hoechst 33342 staining of PC-3 cells; conditions: 7 μM PC1448, 24 hours
Description: (§2) Apoptosis can also be measured by Hoechst 33342 Staining. Cells undergoing apoptosis show several characteristic morphological changes. These changes include cell shrinkage and rounding, and the formation of cytoplasmic blebs on the cell surface. Nuclear material condenses along the edge of the nucleus followed by complete condensation and nuclear fragmentation (Hacker, G., 2000). Apoptotic cells eventually break up into membrane bound vesicles, which are known as apoptotic bodies. Hoechst 33342 is a fluorescent DNA-binding dye that allows visualization of chromatin distribution within a cell. Apoptotic nuclei have highly condensed chromatin, often in crescent shapes around the periphery of the nucleus.
(§3) A further indication of apoptotic activity, in addition to the assays described above, can be derived from observations of changes in cell architecture evident after induction of apoptosis. Hoechst 33342 is a fluorescent DNA-binding dye that allows visualization of chromatin distribution within a cell.
(§4) Cells undergoing apoptosis show several characteristic morphological changes. These changes include cell shrinkage and rounding, and the formation of cytoplasmic blebs on the cell surface. Nuclear material condenses along the edge of the nucleus followed by complete condensation and nuclear fragmentation (Hacker, G., 2000). […]

[6] = test system: MDA-MB-231 (breast cancer) cells; test: Hoechst 33342 staining of MDA-MB-231 cells; conditions: 7 μM PC1448, 24 hours
Description: as §2, §3, §4

[7] = test system: CRL-2522 (normal fibroblast) cells; test: Hoechst 33342 staining of CRL-2522 cells; conditions: 7 μM PC1448, 24 hours
Description: as §2, §3, §4

Segetoside H [PC1448]
Caspase 9 positive cells ([1]; 14 μM PC1448, 10 hr): 23.2% | Caspase 9 positive cells ([1]; 14 μM PC1448, 15 hr): 29.8% | Caspase 9 positive cells ([1]; 14 μM PC1448, 20 hr): 30.5% | Increase in cells with caspase 9 activity vs untreated (maximum effect) ([1]; 14 μM PC1448, 40 hours): 2.5 fold | Caspase 9 positive cells ([1]; 14 μM PC1448, 40 hr): 39.4% | Change in Caspase 9 positive cells (in words) ([2]; 14 μM PC1448, 10 to 48 hr): No increase in Caspase 9 positive cells | Caspase 9 positive cells ([2]; 14 μM PC1448, 10 hr): 15.9% | Caspase 9 positive cells ([2]; 14 μM PC1448, 24 hr): 10.6% | Caspase 9 positive cells ([2]; 14 μM PC1448, 48 hr): 9.5% | Caspase 3/7 activity compared to untreated cells / induction of apoptosis (in words, FIG. 5) [3]: increase in caspase 3/7 activity | Induction of apoptosis (in words, FIG. 8) [4]: induces apoptosis | Nuclear morphology after Hoechst 33342 staining (in words, FIG. 4) [5]: nuclear changes characteristic of apoptotic cells | Nuclear morphology after Hoechst 33342 staining (in words, FIG. 4) [6]: nuclear changes characteristic of apoptotic cells | Nuclear morphology after Hoechst 33342 staining (in words, FIG. 4) [7]: nuclear changes characteristic of apoptotic cells
